Reference: patent US4272437A, “Antibacterial agents, and 4-thio azetidinone intermediates” (priority 1979, dated 1981)
Converted amounts (≈) assume the structure as drawn. Counter-ions that a name gives are not always drawn. Like-named read-outs stand apart in the source and are kept apart here.

Key:
Ser. marcescens A-20019 = assay: MIC, tube dilution, Serratia marcescens A20019; type: cell-based; conditions: Serratia marcescens, A20019, Serratia marcescens A20019; overnight 37° C.; read-out: Minimum Inhibitory Concentration (M.I.C.)
Description: (§1) Representative compounds of the present invention were subjected to in vitro antibiotic screening against a variety of microorganisms.

[1] = test system: Staph. aureus (Meth-Res) A-15097; assay: MIC, tube dilution, Staphylococcus aureus A15097 (Meth-Res); type: cell-based; conditions: Staphylococcus aureus, overnight 37° C.
Description: as §1

E. coli A-20341-1 = assay: MIC, tube dilution, Escherichia coli A20341-1; type: cell-based
Description: as §1

Pr. morganii A-15153 = assay: MIC, tube dilution, Proteus morganii A15153; type: cell-based; conditions: Morganella morganii, A15153, Proteus morganii A15153; overnight 37° C.; read-out: Minimum Inhibitory Concentration (M.I.C.)
Description: as §1

Str. pneumoniae A-9585 = assay: MIC, tube dilution, Streptococcus pneumoniae A9585; type: cell-based; conditions: Streptococcus pneumoniae, A9585, Str. pneumoniae A9585; overnight 37° C., Nutrient Broth; read-out: Minimum Inhibitory Concentration (M.I.C.)
Description: as §1

[2] = test system: Staph. aureus (Pen-Res) A-9606; assay: MIC, tube dilution, Staphylococcus aureus A9606 (Pen-Res); type: cell-based; conditions: Staphylococcus aureus, overnight 37° C.
Description: as §1

Ps. aeruginosa A-9843A = assay: MIC, tube dilution, Pseudomonas aeruginosa A9843A; type: cell-based; conditions: Pseudomonas aeruginosa, A9843A, read-out: Minimum Inhibitory Concentration (M.I.C.), Pseudomonas aeruginosa A9843A; overnight 37° C.
Description: as §1

Str. pyogenes A-9604 = assay: MIC, tube dilution, Streptococcus pyogenes A9604; type: cell-based; conditions: Streptococcus pyogenes, A9604, Str. pyogenes A9604; overnight 37° C., Nutrient Broth; read-out: Minimum Inhibitory Concentration (M.I.C.)
Description: as §1

Pr. mirabilis A-9900 = assay: MIC, tube dilution, Proteus mirabilis A9900; type: cell-based; conditions: Proteus mirabilis, A9900, Proteus mirabilis A9900; overnight 37° C.; read-out: Minimum Inhibitory Concentration (M.I.C.)
Description: as §1

E. coli A-15119 = assay: MIC, tube dilution, Escherichia coli A15119; type: cell-based; conditions: Escherichia coli, A15119, E. coli A15119; overnight 37° C.; read-out: Minimum Inhibitory Concentration (M.I.C.)
Description: as §1

Proteus vulgaris A21559 = assay: MIC, tube dilution, Proteus vulgaris A21559; type: cell-based; conditions: Proteus vulgaris
Description: as §1

Ent. cloacae A-9659 = assay: MIC, tube dilution, Enterobacter cloacae A9659; type: cell-based; conditions: Enterobacter cloacae, A9659, Enterobacter cloacae A9659; overnight 37° C.; read-out: Minimum Inhibitory Concentration (M.I.C.)
Description: as §1

[3] = test system: Klebsiella species A20468; assay: MIC, tube dilution, Klebsiella species A20468; type: cell-based; conditions: Klebsiella species (K. pneumoniae) A20468; overnight 37° C.; read-out: Minimum Inhibitory Concentration (M.I.C.)
Description: as §1

K. pneumoniae A-15130 = assay: MIC, tube dilution, Klebsiella pneumoniae A15130; type: cell-based; conditions: Klebsiella pneumoniae, A15130, K. pneumoniae A15130; overnight 37° C.; read-out: Minimum Inhibitory Concentration (M.I.C.)
Description: as §1

Ps. aeruginosa A-21213 = assay: MIC, tube dilution, Pseudomonas aeruginosa A21213; type: cell-based; conditions: overnight 37° C., read-out: Minimum Inhibitory Concentration (M.I.C.)
Description: as §1

[4] = test system: Staph. aureus A-9537 and 50% serum; assay: MIC, tube dilution, Staph. aureus A9537 + 50% serum; type: cell-based, Staphylococcus aureus; conditions: Staphylococcus aureus, overnight 37° C., read-out: Minimum Inhibitory Concentration (M.I.C.)
Description: as §1

Staph. aureus A-9537 = assay: MIC, tube dilution, Staphylococcus aureus A9537; type: cell-based; conditions: Staphylococcus aureus, A9537, Staph. aureus A9537; overnight 37° C., Nutrient Broth; read-out: Minimum Inhibitory Concentration (M.I.C.)
Description: as §1

Proteus rettgeri A21203 = assay: MIC, tube dilution, Proteus rettgeri A21203; type: cell-based; conditions: Providencia rettgeri, overnight 37° C., read-out: Minimum Inhibitory Concentration (M.I.C.)
Description: as §1

Str. faecalis A-20688 = assay: MIC, tube dilution, Streptococcus faecalis A20688; type: cell-based; conditions: Enterococcus faecalis, A20688, Str. faecalis A20688; overnight 37° C.; read-out: Minimum Inhibitory Concentration (M.I.C.)
Description: as §1

Ent. cloacae A-9656 = assay: MIC, tube dilution, Enterobacter cloacae A9656; type: cell-based; conditions: overnight 37° C., read-out: Minimum Inhibitory Concentration (M.I.C.)
Description: as §1

[5] = read-out: Minimum Inhibitory Concentration (M.I.C.), Staph. aureus A15097 (Meth-Res)
[6] = Escherichia coli, A203411; E. coli A20341-1; overnight 37° C.; read-out: Minimum Inhibitory Concentration (M.I.C.)
[7] = Staph. aureus A9606 (Pen-Res), read-out: Minimum Inhibitory Concentration (M.I.C.)
[8] = A21559, read-out: Minimum Inhibitory Concentration (M.I.C.)
[9] = Staph. aureus A15097 (Meth-Res), read-out: Minimum Inhibitory Concentration (M.I.C.)
[10] = Escherichia coli, A203411, E. coli A20341-1; overnight 37° C.; read-out: Minimum Inhibitory Concentration (M.I.C.)
[11] = A21559, Proteus vulgaris A21559, overnight 37° C., read-out: Minimum Inhibitory Concentration (M.I.C.)
[12] = Pseudomonas aeruginosa, A21213, Pseudomonas aeruginosa A21213
[13] = A21203, Proteus rettgeri A21203
[14] = Enterobacter cloacae, A9656, Enterobacter cloacae A9656

Compound	MIC (Ser. marcescens A-20019) [µg/mL]	MIC (Pr. morganii A-15153) [µg/mL]	MIC (Str. pneumoniae A-9585) [µg/mL]	MIC [2, 7] [µg/mL]	MIC (Ps. aeruginosa A-9843A) [µg/mL]	MIC (Str. pyogenes A-9604) [µg/mL]	MIC (Pr. mirabilis A-9900) [µg/mL]	MIC (E. coli A-15119) [µg/mL]	MIC (Ent. cloacae A-9659) [µg/mL]	MIC [3] [µg/mL]	MIC (K. pneumoniae A-15130) [µg/mL]	MIC [4] [µg/mL]	MIC (Staph. aureus A-9537) [µg/mL]	MIC (Str. faecalis A-20688) [µg/mL]	MIC [1, 9] [µg/mL]	MIC (E. coli A-20341-1; [10]) [µg/mL]	MIC (Proteus vulgaris A21559; [11]) [µg/mL]	MIC (Ps. aeruginosa A-21213; [12]) [µg/mL]	MIC (Proteus rettgeri A21203; [13]) [µg/mL]	MIC (Ent. cloacae A-9656; [14]) [µg/mL]	further results
CC[C@@H](O)[C@H]1C(=O)N2C(C(=O)O)=C(C)S[C@H]12 (relative stereo) [Example 94, (1'R,5R,6S and 1'S,5S,6R) 6-(1'-Hydroxy-1'-propyl)-2-methylpenem-3carboxylic acid, sodium and potassium salts (isomer B)]	> 125	> 125	1	32	> 125	16	> 125	> 125	> 125	> 125	> 125	> 63	32	> 125	–	–	–	–	–	–	MIC [1, 5]: > 125 µg/mL; MIC (E. coli A-20341-1; [6]): > 125 µg/mL; MIC (Proteus vulgaris A21559; [8]): > 125 µg/mL; MIC (Ps. aeruginosa A-21213; Pseudomonas aeruginosa A21213): > 125 µg/mL; MIC (Proteus rettgeri A21203; Proteus rettgeri A21203): > 125 µg/mL; MIC (Ent. cloacae A-9656; Enterobacter cloacae A9656): > 125 µg/mL
CC1=C(C(=O)O)N2C(=O)[C@H]([C@H](O)Cc3ccccc3)[C@H]2S1 (relative stereo) [Example 95, (1'R,5R,6S and 1'S,5S,6R) 6-(1'-Hydroxy-2'-phenylethyl)-2-methylpenem-3-carboxylic acid (isomer B)]	> 125	> 125	32 (≈ 105 µM)	–	> 125	32 (≈ 105 µM)	> 125	> 125	> 125	> 125	> 125	> 63	125 (≈ 409 µM)	> 125	–	–	–	–	–	–	MIC [1, 5]: > 125 µg/mL; MIC (E. coli A-20341-1; [6]): > 125 µg/mL; MIC ([2]; read-out: Minimum Inhibitory Concentration (M.I.C.), Staph. aureus A9606 (Pen-Res)): > 125 µg/mL; MIC (Proteus vulgaris A21559; [8]): > 125 µg/mL; MIC (Ps. aeruginosa A-21213; Pseudomonas aeruginosa A21213): > 125 µg/mL; MIC (Proteus rettgeri A21203; Proteus rettgeri A21203): > 125 µg/mL; MIC (Ent. cloacae A-9656; Enterobacter cloacae A9656): > 125 µg/mL
CC1=C(C(=O)O)N2C(=O)[C@H]([C@H]3COC(C)(C)O3)[C@H]2S1 (relative stereo) [Example 104, (4'S,5R,6S and 4'R,5S,6R) 6-(2',2'-Dimethyl-1',3'-dioxolan-4'-yl)-2-methylpenem-3-carboxylic Acid (Isomer B)]	> 63	> 63	16 (≈ 56.1 µM)	63 (≈ 221 µM)	63 (≈ 221 µM)	32 (≈ 112 µM)	> 63	> 63	> 63	> 63	> 63	> 32	63 (≈ 221 µM)	63 (≈ 221 µM)	63 (≈ 221 µM)	> 63	> 63	63 (≈ 221 µM)	63 (≈ 221 µM)	> 63	–
COCOC[C@H](O)[C@H]1C(=O)N2C(C(=O)O)=C(C)S[C@H]12 (relative stereo) [Example 105, (1'R,5R,6S and 1'S,5S,6R) 6-(1'-Hydroxy-2'-methoxymethoxy-2'-ethyl)-2-methylpenem-3-carboxylic acid (Isomer C)]	> 63	> 63	4 (≈ 13.8 µM)	63 (≈ 218 µM)	63 (≈ 218 µM)	4 (≈ 13.8 µM)	> 63	63 (≈ 218 µM)	63 (≈ 218 µM)	> 63	63 (≈ 218 µM)	> 32	> 8	> 63	> 63	63 (≈ 218 µM)	> 63	63 (≈ 218 µM)	32 (≈ 111 µM)	63 (≈ 218 µM)	–
COCOC[C@@H](O)[C@H]1C(=O)N2C(C(=O)O)=C(C)S[C@H]12 (relative stereo) [Example 106, (1'S,5R,6S and 1'R,5S,6R) 6-(1'-Hydroxy-2'-methoxymethoxy-2'-ethyl)-2-methylpenem-3-carboxylic acid (Isomer B)]	63 (≈ 218 µM)	> 63	32 (≈ 111 µM)	> 63	63 (≈ 218 µM)	32 (≈ 111 µM)	63 (≈ 218 µM)	63 (≈ 218 µM)	> 63	> 63	> 63	> 32	63 (≈ 218 µM)	> 63	> 63	63 (≈ 218 µM)	> 63	63 (≈ 218 µM)	63 (≈ 218 µM)	63 (≈ 218 µM)	–
